Measurements taken from patent US20040142322A1, “Continuous non-radioactive polymerase assay” (priority 2002, published 2004).

Assays:
Assay type in all cases: biochemical
HCV NS5B = target: T1, HCV NS5B (Hepatitis C virus genotype 1b, UniProt P26663); test: Continuous non-radioactive (luciferase-coupled) NS5B polymerase assay, inhibitor test; details: NS5B 20 nM, GTP 1 μM, inhibitor 0.1-2.5 μM, FIG. 3
T1 construct: The HCV NS5BΔ55 enzyme was prepared as described by Ferrari et al; made in house
Method: Polymerase assays were performed at room temperature using a 100 μl reaction mix in a 96-well plate. Final reaction conditions for NS5B were modified from those used by Ferrari et al. J. Virol. 73:1649-54 (1999) [20 mM Hepes pH 7.3; 7.5 mM DTT; 20 U/ml RNAsin; 0.5 μg/ml oligo(G)12; 5 μg/ml poly(C); 1 μM GTP; 10 mM MgCl2; 60 mM NaCl; 100 μg/ml BSA; and NS5B]. NS5B assay mixtures were supplemented with components for the ATP sulfurylase and luciferase coupled enzyme reactions [0.5 mM coenzyme A (CoA); 310 μM D-luciferin; 1 nM luciferase; 5 μM APS; 0.03-0.3 U ATP sulfurylase (see Brief Description of the Drawings for specific conditions)]. […]
To test the effect of inhibitors on the NS5B polymerase reaction, compounds were diluted in the appropriate diluents and added to the GTP-containing mixture. Microtiter plates containing the reaction samples were immediately transferred to the luminometer for detection of the light signal generated over time, taking a 0.2-1.0 s reading of each well every 30-60 s (time intervals depend on the number of samples tested). Readings were monitored in comparison to a no-NS5B reaction as a control for ATP generation in the absence of polymerase activity. […]

firefly luciferase [1] = target: T2, firefly luciferase (Photinus pyralis, UniProt P08659)
T2 construct: purchased Promega (Madison, Wis.)
Method: (§1) To test the effect of NTPs on the ATP sulfurylase/luciferase coupled read-out system, control reactions for NS5B assays (with 0.3 U ATP sulfurylase) were assembled as above omitting RdRp and RNA. Reactions were initiated by addition of nucleotide (1 μM final). To reduce free PPi in commercial NTPs, 10 mM stocks were pretreated with inorganic pyrophosphatase. A 10 μl aliquot of the NTP stock was incubated with 0.5 U of thermostable inorganic pyrophosphatase for 10 minutes at 75° C.; untreated NTP samples were processed in parallel as controls. Treated and untreated NTPs were diluted to 100 μM working stocks for subsequent assays.
(§2) Another possible source of background is direct utilization of the NTPs by the ATP sulfurylase/luciferase cascade. To address this possibility, reactions without either RdRp or template were examined.

firefly luciferase [2] = details: reactions without RdRp or template, nucleotide 1 μM final
Method: as §1, §2

T1 sequence (P26663 2420-2955): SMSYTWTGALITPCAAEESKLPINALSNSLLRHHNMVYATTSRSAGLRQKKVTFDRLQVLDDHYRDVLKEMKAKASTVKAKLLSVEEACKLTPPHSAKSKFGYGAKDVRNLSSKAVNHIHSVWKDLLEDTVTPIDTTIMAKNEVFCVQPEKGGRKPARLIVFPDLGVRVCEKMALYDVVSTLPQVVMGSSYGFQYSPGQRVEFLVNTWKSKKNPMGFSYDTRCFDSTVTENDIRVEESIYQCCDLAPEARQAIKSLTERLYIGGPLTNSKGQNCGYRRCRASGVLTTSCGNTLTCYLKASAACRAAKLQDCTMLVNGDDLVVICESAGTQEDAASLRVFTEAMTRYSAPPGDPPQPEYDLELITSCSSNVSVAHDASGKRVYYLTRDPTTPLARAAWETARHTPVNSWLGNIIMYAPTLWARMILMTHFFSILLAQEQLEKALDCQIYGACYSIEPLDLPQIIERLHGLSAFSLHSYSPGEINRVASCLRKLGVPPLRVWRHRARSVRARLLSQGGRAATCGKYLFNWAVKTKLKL
T2 sequence (P08659 whole entry): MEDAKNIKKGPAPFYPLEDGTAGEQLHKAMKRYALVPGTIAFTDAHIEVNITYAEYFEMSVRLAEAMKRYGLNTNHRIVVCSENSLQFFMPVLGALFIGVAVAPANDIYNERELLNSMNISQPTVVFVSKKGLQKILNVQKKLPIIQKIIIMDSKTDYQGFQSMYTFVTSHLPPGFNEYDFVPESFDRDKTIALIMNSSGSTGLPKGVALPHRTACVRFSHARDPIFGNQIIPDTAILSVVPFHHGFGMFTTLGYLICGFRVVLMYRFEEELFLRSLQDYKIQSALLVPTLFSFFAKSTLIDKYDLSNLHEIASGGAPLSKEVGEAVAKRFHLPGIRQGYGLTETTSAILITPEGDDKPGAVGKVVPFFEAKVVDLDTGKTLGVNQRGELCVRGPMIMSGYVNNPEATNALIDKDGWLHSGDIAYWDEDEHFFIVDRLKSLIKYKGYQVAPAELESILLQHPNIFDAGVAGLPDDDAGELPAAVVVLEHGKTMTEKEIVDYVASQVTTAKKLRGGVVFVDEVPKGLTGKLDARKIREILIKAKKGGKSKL

Nc1nc2c(ncn2[C@@H]2O[C@H](COP(=O)(O)OP(=O)(O)OP(=O)(O)O)C[C@H]2O)c(=O)[nH]1 [3′-deoxyguanosine-5′ triphosphate]
Inhibition of NS5B activity (reduced levels of light generated) (HCV NS5B; 30 minute reaction): Dose- and time-dependent inhibition
Mode of inhibition from progress curves (HCV NS5B): consistent with chain termination

Nc1ncnc2c1ncn2[C@@H]1O[C@H](COP(=O)(O)OP(=O)(O)OP(=O)(O)O)[C@@H](O)[C@H]1O [ATP, Adenosine 5′-triphosphate]
Km (firefly luciferase [1]; read-out: Km for the luciferase reaction, under these experimental conditions, data not shown): 0.65 ± 0.04 µM

Nc1ncnc2c1ncn2[C@@H]1O[C@H](COP(O)(=S)OP(=O)(O)OP(=O)(O)O)[C@@H](O)[C@H]1O (stereo partly shown) [ATPαS]
Utilization of NTP as substrate by the ATP sulfurylase/luciferase cascade (background signal) (firefly luciferase [2]): poor substrate for luciferase

Nc1nc2c(ncn2[C@@H]2O[C@H](COP(=O)(O)OP(=O)(O)OP(=O)(O)O)[C@@H](O)[C@H]2O)c(=O)[nH]1 [GTP]
Utilization of NTP as substrate by the ATP sulfurylase/luciferase cascade (background signal) (firefly luciferase [2]): lowest level of signal

O=P(O)(O)OP(=O)(O)OP(=O)(O)OC[C@H]1O[C@@H](n2cnc3c(O)ncnc32)[C@H](O)[C@@H]1O [Inosine triphosphate (ITP), Inosine triphosphate]
Utilization of NTP as substrate by the ATP sulfurylase/luciferase cascade (background signal) (firefly luciferase [2]): relatively good luciferase substrate
Luciferase substrate quality relative to GTP (firefly luciferase [1]; reactions without RdRp or template, nucleotide 1 μM final): about 10 fold
